Values after ≈ are worked out from the molar mass of the structure shown.
Key:
Escherichia coli = assay: In vitro antibacterial evaluation: minimum inhibitory concentration (MIC), broth dilution method; assay type: cell-based; details: 5×10^5 CFU/mL, 18 hours at 35° C.
Method in brief: (§1)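 NCCLS M7-A2 broth dilution with Mueller-Hinton II, testing 64-0.06 μg/mL antibiotic against 5×10^5 CFU/mL inocula. Test strains include recent methicillin-, penicillin- or vancomycin-resistant clinical isolates. MIC is the lowest concentration preventing growth.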

Enterococcus sp. = assay: as above; assay type: cell-based; details: broth dilution, 5×10^5 CFU/mL, 18 hours at 35° C.
Method in brief: as §1

Streptococcus sp. = assay: as above; assay type: cell-based; details: broth dilution, 5×10^5 CFU/mL, 18 hours at 35° C.
Method in brief: as §1

Staphylococcus sp. = assay: as above; assay type: cell-based; details: for MIC Staphylococcus aureus (ATCC 29213): strain ATCC 29213; for MIC Staphylococcus aureus (GC 1131): strain GC 1131; for MIC Staphylococcus aureus (GC 4541): strain GC 4541; for MIC Staphylococcus aureus (GC 4542): strain GC 4542; for MIC Staphylococcus aureus-SMITH (GC 4543): strain GC 4543; for MIC Staphylococcus aureus (GC 4544): strain GC 4544; for MIC Staphylococcus aureus (GC 4545): strain GC 4545; for MIC Staphylococcus haemolyticus (GC 4546): strain GC 4546; for MIC Coagulase Negative Staphylococcus (GC 4547): strain GC 4547; for MIC Coagulase Negative Staphylococcus (GC 4548): strain GC 4548; for MIC Coagulase Negative Staphylococcus (GC 4549): strain GC 4549; for MIC Coagulase Negative Staphylococcus (GC 4551): strain GC 4551; for MIC Coagulase Negative Staphylococcus (ID-3941): strain ID-3941; for MIC Coagulase Negative Staphylococcus (GC 6257): strain GC 6257
Method in brief: as §1

[1] = test system: Streptococcus pneumoniae (GC 1894), penicillin resistant strain; assay: Acute lethal infection in mice (ED50); assay type: in vivo; details: female CD-1 mice, intraperitoneal challenge, intravenous dose 30 min. after infection, 7 day survival ratios
Method in brief: (§2)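 Female CD-1 mice challenged intraperitoneally with a bacterial dose lethal to untreated controls within 24-48 h. Compound given intravenously in saline or 5% dextrose 30 min post-infection, five mice per dose; ED50 from 7-day survival pooled over 3 tests.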

[2] = test system: Enterococcus faecalis (GC 6189), vancomycin resistant strain; assay: Acute lethal infection in mice (ED50); assay type: in vivo; details: female CD-1 mice, intraperitoneal challenge, intravenous dose 30 min. after infection, 7 day survival ratios
Method in brief: as §2

[3] = test system: Staphylococcus aureus-SMITH (GC 4543); assay: Acute lethal infection in mice (ED50); assay type: in vivo; details: female CD-1 mice, intraperitoneal challenge, intravenous dose 30 min. after infection, 7 day survival ratios
Method in brief: as §2

[4] = broth dilution, 18 hours at 35° C.

Question: Which results are given for CCCC(C)C1OCC2OC(OC3C(CO)OC(Oc4ccc(CC5NC(=O)C(C(C)c6ccccc6)NC(=O)CNC(=O)C(CO)NC(=O)C(C(O)C6CNC(=N)N6C6OC(CO)C(O)C(O)C6O)NC(=O)C(C(O)C6CNC(=N)N6)NC5=O)cc4)C(O)C3O)C(O)C(O)C2O1 (centres unmarked) [Example 111]?
Answer: MIC Escherichia coli (ATCC 25922) (Escherichia coli): 32 µg/mL (≈ 23.2 µM); MIC Enterococccus avium (GC 4558) (Enterococcus sp.): 2 µg/mL (≈ 1.45 µM); MIC Enterococccus faecalis (ATCC 29212) (Enterococcus sp.): 2 µg/mL (≈ 1.45 µM); MIC Enterococccus faecalis (GC 4552) (Enterococcus sp.): 2 µg/mL (≈ 1.45 µM); MIC Enterococccus faecalis (GC 4553) (Enterococcus sp.): 2 µg/mL (≈ 1.45 µM); MIC Enterococccus faecalis (GC 4554) (Enterococcus sp.): 2 µg/mL (≈ 1.45 µM); MIC Enterococccus faecium (GC 2243) (Enterococcus sp.): 1 µg/mL (≈ 0.726 µM); MIC Enterococccus faecium (GC 4556) (Enterococcus sp.): 2 µg/mL (≈ 1.45 µM); MIC Enterococccus faecium (GC 4557) (Enterococcus sp.): 0.5 µg/mL (≈ 0.363 µM); MIC Enterococcus faecalis (GC 2242) (Enterococcus sp.): 1 µg/mL (≈ 0.726 µM); MIC Streptococcus agalactiae (GC 4564) (Streptococcus sp.): 1 µg/mL (≈ 0.726 µM); MIC Streptococcus pneumoniae (GC 4565) (Streptococcus sp.): 0.5 µg/mL (≈ 0.363 µM); MIC Streptococcus pyogenes (ID-3187) (Streptococcus sp.): 0.5 µg/mL (≈ 0.363 µM); MIC Staphylococcus aureus (ATCC 29213) (Staphylococcus sp.): 1 µg/mL (≈ 0.726 µM); MIC Staphylococcus aureus (ATCC 29213) (Staphylococcus sp.; [4]): 1 µg/mL (≈ 0.726 µM); MIC Staphylococcus aureus (GC 1131) (Staphylococcus sp.): 1 µg/mL (≈ 0.726 µM); MIC Staphylococcus aureus (GC 1131) (Staphylococcus sp.; [4]): 1 µg/mL (≈ 0.726 µM); MIC Staphylococcus aureus (GC 4541) (Staphylococcus sp.): 1 µg/mL (≈ 0.726 µM); MIC Staphylococcus aureus (GC 4541) (Staphylococcus sp.; [4]): 1 µg/mL (≈ 0.726 µM); MIC Staphylococcus aureus (GC 4542) (Staphylococcus sp.): 1 µg/mL (≈ 0.726 µM); MIC Staphylococcus aureus (GC 4542) (Staphylococcus sp.; [4]): 1 µg/mL (≈ 0.726 µM); MIC Staphylococcus aureus-SMITH (GC 4543) (Staphylococcus sp.; 18 hours at 35° C.): 1 µg/mL (≈ 0.726 µM); MIC Staphylococcus aureus-SMITH (GC 4543) (Staphylococcus sp.; [4]): 1 µg/mL (≈ 0.726 µM); MIC Staphylococcus aureus (GC 4544) (Staphylococcus sp.): 1 µg/mL (≈ 0.726 µM); MIC Staphylococcus aureus (GC 4544) (Staphylococcus sp.; [4]): 1 µg/mL (≈ 0.726 µM); MIC Staphylococcus aureus (GC 4545) (Staphylococcus sp.): 1 µg/mL (≈ 0.726 µM); MIC Staphylococcus aureus (GC 4545) (Staphylococcus sp.; [4]): 1 µg/mL (≈ 0.726 µM); MIC Staphylococcus haemolyticus (GC 4546) (Staphylococcus sp.): 1 µg/mL (≈ 0.726 µM); MIC Staphylococcus haemolyticus (GC 4546) (Staphylococcus sp.; [4]): 1 µg/mL (≈ 0.726 µM); MIC Coagulase Negative Staphylococcus (GC 4547) (Staphylococcus sp.): 0.5 µg/mL (≈ 0.363 µM); MIC Coagulase Negative Staphylococcus (GC 4547) (Staphylococcus sp.; [4]): 0.5 µg/mL (≈ 0.363 µM); MIC Coagulase Negative Staphylococcus (GC 4548) (Staphylococcus sp.): 1 µg/mL (≈ 0.726 µM); MIC Coagulase Negative Staphylococcus (GC 4548) (Staphylococcus sp.; [4]): 1 µg/mL (≈ 0.726 µM); MIC Coagulase Negative Staphylococcus (GC 4549) (Staphylococcus sp.): 0.5 µg/mL (≈ 0.363 µM); MIC Coagulase Negative Staphylococcus (GC 4549) (Staphylococcus sp.; [4]): 0.5 µg/mL (≈ 0.363 µM); MIC Coagulase Negative Staphylococcus (GC 4551) (Staphylococcus sp.): 1 µg/mL (≈ 0.726 µM); MIC Coagulase Negative Staphylococcus (GC 4551) (Staphylococcus sp.; [4]): 1 µg/mL (≈ 0.726 µM); MIC Coagulase Negative Staphylococcus (ID-3941) (Staphylococcus sp.): 1 µg/mL (≈ 0.726 µM); MIC Coagulase Negative Staphylococcus (ID-3941) (Staphylococcus sp.; [4]): 1 µg/mL (≈ 0.726 µM); median effective dose (ED50), Streptococcus pneumoniae (GC 1894) [1]: 0.03 mg/kg; median effective dose (ED50), Enterococcus faecalis (GC 6189) [2]: 0.28 mg/kg; median effective dose (ED50), Staphylococcus aureus-SMITH (GC 4543) [3]: 0.14 mg/kg

Question: What does the source list for CC(c1ccccc1)C1NC(=O)CNC(=O)C(CO)NC(=O)C(C(O)C2CNC(=N)N2C2OC(CO)C(O)C(O)C2O)NC(=O)C(C(O)C2CNC(=N)N2)NC(=O)C(Cc2ccc(OC3OC(CO)C(OC4OC5COC(C6CCCCC6)OC5C(O)C4O)C(O)C3O)cc2)NC1=O (centres unmarked) [Example 112]?
Answer: MIC Escherichia coli (ATCC 25922) (Escherichia coli): 32 µg/mL (≈ 23 µM); MIC Escherichia coli (GC 4559) (Escherichia coli): >16 µg/mL; MIC Escherichia coli (GC 4560) (Escherichia coli): 1 µg/mL (≈ 0.72 µM); MIC Enterococccus avium (GC 4558) (Enterococcus sp.): 2 µg/mL (≈ 1.44 µM); MIC Enterococccus faecalis (ATCC 29212) (Enterococcus sp.): 2 µg/mL (≈ 1.44 µM); MIC Enterococccus faecalis (GC 2691) (Enterococcus sp.): 2 µg/mL (≈ 1.44 µM); MIC Enterococccus faecalis (GC 3059) (Enterococcus sp.): 2 µg/mL (≈ 1.44 µM); MIC Enterococccus faecalis (GC 4552) (Enterococcus sp.): 2 µg/mL (≈ 1.44 µM); MIC Enterococccus faecalis (GC 4553) (Enterococcus sp.): 2 to 4 µg/mL; MIC Enterococccus faecalis (GC 4554) (Enterococcus sp.): 2 µg/mL (≈ 1.44 µM); MIC Enterococccus faecalis (GC 6189) (Enterococcus sp.): 2 µg/mL (≈ 1.44 µM); MIC Enterococccus faecium (GC 2243) (Enterococcus sp.): 1 to 2 µg/mL; MIC Enterococccus faecium (GC 4556) (Enterococcus sp.): 2 µg/mL (≈ 1.44 µM); MIC Enterococccus faecium (GC 4557) (Enterococcus sp.): 0.5 to 2 µg/mL; MIC Enterococcus faecalis (GC 2242) (Enterococcus sp.): 1 to 2 µg/mL; MIC Streptococcus agalactiae (GC 4564) (Streptococcus sp.): <0.12 µg/mL; MIC Streptococcus pneumoniae (GC 4565) (Streptococcus sp.): <0.12 µg/mL; MIC Streptococcus pyogenes (GC 4563) (Streptococcus sp.): <0.12 µg/mL; MIC Streptococcus pyogenes (ID-3187) (Streptococcus sp.): 0.5 µg/mL (≈ 0.36 µM); MIC Staphylococcus aureus (ATCC 29213) (Staphylococcus sp.): 1 µg/mL (≈ 0.72 µM); MIC Staphylococcus aureus (ATCC 29213) (Staphylococcus sp.; [4]): 1 µg/mL (≈ 0.72 µM); MIC Staphylococcus aureus (GC 1131) (Staphylococcus sp.): 0.5 to 1 µg/mL; MIC Staphylococcus aureus (GC 1131) (Staphylococcus sp.; [4]): 0.5 to 1 µg/mL; MIC Staphylococcus aureus (GC 4541) (Staphylococcus sp.): 1 µg/mL (≈ 0.72 µM); MIC Staphylococcus aureus (GC 4541) (Staphylococcus sp.; [4]): 1 µg/mL (≈ 0.72 µM); MIC Staphylococcus aureus (GC 4542) (Staphylococcus sp.): 1 µg/mL (≈ 0.72 µM); MIC Staphylococcus aureus (GC 4542) (Staphylococcus sp.; [4]): 1 µg/mL (≈ 0.72 µM); MIC Staphylococcus aureus-SMITH (GC 4543) (Staphylococcus sp.; 18 hours at 35° C.): 0.5 to 1 µg/mL; MIC Staphylococcus aureus-SMITH (GC 4543) (Staphylococcus sp.; [4]): 0.5 to 1 µg/mL; MIC Staphylococcus aureus (GC 4544) (Staphylococcus sp.): 0.5 to 2 µg/mL; MIC Staphylococcus aureus (GC 4544) (Staphylococcus sp.; [4]): 0.5 to 2 µg/mL; MIC Staphylococcus aureus (GC 4545) (Staphylococcus sp.): 1 to 2 µg/mL; MIC Staphylococcus aureus (GC 4545) (Staphylococcus sp.; [4]): 1 to 2 µg/mL; MIC Staphylococcus haemolyticus (GC 4546) (Staphylococcus sp.): 1 µg/mL (≈ 0.72 µM); MIC Staphylococcus haemolyticus (GC 4546) (Staphylococcus sp.; [4]): 1 µg/mL (≈ 0.72 µM); MIC Coagulase Negative Staphylococcus (GC 4547) (Staphylococcus sp.): 0.5 to 1 µg/mL; MIC Coagulase Negative Staphylococcus (GC 4547) (Staphylococcus sp.; [4]): 0.5 to 1 µg/mL; MIC Coagulase Negative Staphylococcus (GC 4548) (Staphylococcus sp.): 0.5 to 1 µg/mL; MIC Coagulase Negative Staphylococcus (GC 4548) (Staphylococcus sp.; [4]): 0.5 to 1 µg/mL; MIC Coagulase Negative Staphylococcus (GC 4549) (Staphylococcus sp.): 0.5 to 1 µg/mL; MIC Coagulase Negative Staphylococcus (GC 4549) (Staphylococcus sp.; [4]): 0.5 to 1 µg/mL; MIC Coagulase Negative Staphylococcus (GC 4551) (Staphylococcus sp.): 0.5 to 1 µg/mL; MIC Coagulase Negative Staphylococcus (GC 4551) (Staphylococcus sp.; [4]): 0.5 to 1 µg/mL; MIC Coagulase Negative Staphylococcus (GC 6257) (Staphylococcus sp.): 1 µg/mL (≈ 0.72 µM); MIC Coagulase Negative Staphylococcus (GC 6257) (Staphylococcus sp.; [4]): 1 µg/mL (≈ 0.72 µM); MIC Coagulase Negative Staphylococcus (ID-3941) (Staphylococcus sp.): 0.5 µg/mL (≈ 0.36 µM); MIC Coagulase Negative Staphylococcus (ID-3941) (Staphylococcus sp.; [4]): 0.5 µg/mL (≈ 0.36 µM); median effective dose (ED50), Streptococcus pneumoniae (GC 1894) [1]: 0.02 mg/kg; median effective dose (ED50), Enterococcus faecalis (GC 6189) [2]: 0.19-0.28; median effective dose (ED50), Staphylococcus aureus-SMITH (GC 4543) [3]: 0.07-0.08
